# Reference: patent publication US7592160B2, “Processes for producing isomaltose and isomaltitol and use thereof” (Kabushiki Kaisha Hayashibara Seibutsu Kagaku Kenkyujo, priority 2001, dated 2009)
# Assays:
# Set-up in all cases: key: −: no saccharide-transferred product was detected through transfer reaction to acceptor; ±: a saccharide-transferred product was detected in an amount less than one percent through transfer reaction to acceptor; +: a saccharide-transferred product was detected in an amount over one percent but less than 10% through transfer reaction to acceptor; ++: a saccharide-transferred product was detected in an amount over ten percent through transfer reaction to acceptor
# [1] = system: α-isomaltosylglucosaccharide-forming enzyme; assay: Transfer-acceptor specificity, enzyme of C9 strain; type: biochemical, Bacillus globisporus C9 strain; settings: acceptor 1.6%, PINE-DEX #100 donor 4%, one unit/g donor, 30° C., pH 6.0, 24 hours
# Experimental: (§1) Using various saccharides, it was tested whether the saccharides were used as transferring-acceptors for α-isomaltosylglucosaccharide-forming enzyme. A solution of D-glucose, D-xylose, L-xylose, D-galactose, D-fructose, D-mannose, D-arabinose, D-fucose, D-psicose, L-sorbose, L-rhamnose, methyl-α-glucopyranoside, methyl-β-glucopyranoside, N-acetyl-glucosamine, sorbitol, α,α-trehalose, isomaltose, isomaltotriose, cellobiose, gentibiose, glycerol, maltitol, lactose, sucrose, α-cyclodextrin, β-cyclodextrin, γ-cyclodextrin, or L-ascorbic acid was prepared. To each solution with a saccharide concentration of 1.6% was added “PINE-DEX #100”, a partial starch hydrolyzate, as a saccharide donor, to give a concentration of 4%, and admixed with one unit/g saccharide donor, d.s.b., of either of purified specimens of α-isomaltosylglucosaccharide-forming enzyme from Bacillus globisporus C9 strain obtained by the method in Experiment 4-2, Bacillus globisporus C11 strain obtained by the method in Experiment 7-2, Bacillus globisporus N75 strain obtained by the method in Experiment 11-2, or Arthrobacter globiformis A19 strain obtained by the method in Experiment 15-2, and incubated at 30° C. and pH 6.0 for 24 hours, except that pH 8.4 was used for the enzyme from Arthrobacter globiformis A19 strain. The reaction mixtures of the post-enzymatic reactions were analyzed on gas chromatography (abbreviated as “GLC” hereinafter) for monosaccharides and disaccharides as acceptors, and on HPLC for trisaccharides as acceptors to confirm whether these saccharides could be used as the transfer acceptors of the above enzymes. In the case of performing GLC, the following apparatuses and conditions were used: GLC apparatus, “GC-16A” commercialized by Shimadzu Corporation, Tokyo, Japan; column, a stainless-steel column, 3 mm in diameter and 2 m in length, packed with 2% “SILICONE OV-17/CHROMOSOLV W”, commercialized by GL Sciences Inc., Tokyo, Japan; carrier gas, nitrogen gas at a flow rate of 40 ml/min under temperature conditions of increasing from 160° C. to 320° C. at an increasing temperature rate of 7.5° C./min; and detection, a hydrogen flame ionization detector. In the case of performing HPLC analysis, the following apparatuses and conditions were used: HPLC apparatus, “CCPD” commercialized by Tosoh Corporation, Tokyo, Japan; column, “ODS-AQ-303” commercialized by YMC Co., Ltd., Tokyo, Japan; eluent, water at a flow rate of 0.5 ml/min; and detection, a differential refractometer.
# [2] = system: α-isomaltosylglucosaccharide-forming enzyme; assay: Transfer-acceptor specificity, enzyme of C11 strain; type: biochemical, Bacillus globisporus C11 strain; settings: acceptor 1.6%, PINE-DEX #100 donor 4%, one unit/g donor, 30° C., pH 6.0, 24 hours
# Experimental: as §1
# [3] = system: α-isomaltosylglucosaccharide-forming enzyme; assay: Transfer-acceptor specificity, enzyme of N75 strain; type: biochemical, Bacillus globisporus N75 strain; settings: acceptor 1.6%, PINE-DEX #100 donor 4%, one unit/g donor, 30° C., pH 6.0, 24 hours
# Experimental: as §1
# [4] = system: α-isomaltosylglucosaccharide-forming enzyme; assay: Transfer-acceptor specificity, enzyme of A19 strain; type: biochemical, Arthrobacter globiformis A19 strain; settings: acceptor 1.6%, PINE-DEX #100 donor 4%, one unit/g donor, 30° C., pH 8.4, 24 hours
# Experimental: as §1
Compound,"Product of transferring reaction, Enzyme of C9 strain [1]","Product of transferring reaction, Enzyme of C11 strain [2]","Product of transferring reaction, Enzyme of N75 strain [3]","Product of transferring reaction, Enzyme of A19 strain [4]"
"C[C@@H](O)[C@H](O)[C@H](O)[C@@H](O)C=O [D-Fucose, D-fucose]",+ (a saccharide-transferred product was detected in an amount over one percent but less than 10% through transfer reaction to acceptor),+ (a saccharide-transferred product was detected in an amount over one percent but less than 10% through transfer reaction to acceptor),+ (a saccharide-transferred product was detected in an amount over one percent but less than 10% through transfer reaction to acceptor),± (a saccharide-transferred product was detected in an amount less than one percent through transfer reaction to acceptor)
"O=C[C@@H](O)[C@H](O)[C@H](O)CO [D-Arabinose, D-arabinose]",± (a saccharide-transferred product was detected in an amount less than one percent through transfer reaction to acceptor),± (a saccharide-transferred product was detected in an amount less than one percent through transfer reaction to acceptor),± (a saccharide-transferred product was detected in an amount less than one percent through transfer reaction to acceptor),± (a saccharide-transferred product was detected in an amount less than one percent through transfer reaction to acceptor)
"CO[C@H]1O[C@H](CO)[C@@H](O)[C@H](O)[C@H]1O [Methyl-α-glucopyranoside, methyl-α-glucopyranoside]",++ (a saccharide-transferred product was detected in an amount over ten percent through transfer reaction to acceptor),++ (a saccharide-transferred product was detected in an amount over ten percent through transfer reaction to acceptor),++ (a saccharide-transferred product was detected in an amount over ten percent through transfer reaction to acceptor),++ (a saccharide-transferred product was detected in an amount over ten percent through transfer reaction to acceptor)
"O=C(CO)[C@@H](O)[C@H](O)[C@@H](O)CO [L-Sorbose, L-sorbose]",+ (a saccharide-transferred product was detected in an amount over one percent but less than 10% through transfer reaction to acceptor),+ (a saccharide-transferred product was detected in an amount over one percent but less than 10% through transfer reaction to acceptor),+ (a saccharide-transferred product was detected in an amount over one percent but less than 10% through transfer reaction to acceptor),+ (a saccharide-transferred product was detected in an amount over one percent but less than 10% through transfer reaction to acceptor)
"OCC(O)CO [Glycerol, glycerol]",+ (a saccharide-transferred product was detected in an amount over one percent but less than 10% through transfer reaction to acceptor),+ (a saccharide-transferred product was detected in an amount over one percent but less than 10% through transfer reaction to acceptor),+ (a saccharide-transferred product was detected in an amount over one percent but less than 10% through transfer reaction to acceptor),+ (a saccharide-transferred product was detected in an amount over one percent but less than 10% through transfer reaction to acceptor)
"O=C1O[C@H]([C@@H](O)CO)C(O)=C1O [L-Ascorbic acid, L-ascorbic acid]",+ (a saccharide-transferred product was detected in an amount over one percent but less than 10% through transfer reaction to acceptor),+ (a saccharide-transferred product was detected in an amount over one percent but less than 10% through transfer reaction to acceptor),+ (a saccharide-transferred product was detected in an amount over one percent but less than 10% through transfer reaction to acceptor),+ (a saccharide-transferred product was detected in an amount over one percent but less than 10% through transfer reaction to acceptor)
"CO[C@@H]1O[C@H](CO)[C@@H](O)[C@H](O)[C@H]1O [Methyl-β-glucopyranoside, methyl-β-glucopyranoside]",++ (a saccharide-transferred product was detected in an amount over ten percent through transfer reaction to acceptor),++ (a saccharide-transferred product was detected in an amount over ten percent through transfer reaction to acceptor),++ (a saccharide-transferred product was detected in an amount over ten percent through transfer reaction to acceptor),++ (a saccharide-transferred product was detected in an amount over ten percent through transfer reaction to acceptor)
"OC[C@H]1O[C@@H]2O[C@H]3[C@H](O)[C@@H](O)[C@@H](O[C@H]4[C@H](O)[C@@H](O)[C@@H](O[C@H]5[C@H](O)[C@@H](O)[C@@H](O[C@H]6[C@H](O)[C@@H](O)[C@@H](O[C@H]7[C@H](O)[C@@H](O)[C@@H](O[C@H]8[C@H](O)[C@@H](O)[C@@H](O[C@H]9[C@H](O)[C@@H](O)[C@@H](O[C@H]1[C@H](O)[C@H]2O)O[C@@H]9CO)O[C@@H]8CO)O[C@@H]7CO)O[C@@H]6CO)O[C@@H]5CO)O[C@@H]4CO)O[C@@H]3CO [γ-Cyclodextrin, γ-cyclodextrin]",−,−,−,−
"O=C(CO)[C@H](O)[C@H](O)[C@H](O)CO [D-Psicose, D-psicose]",+ (a saccharide-transferred product was detected in an amount over one percent but less than 10% through transfer reaction to acceptor),+ (a saccharide-transferred product was detected in an amount over one percent but less than 10% through transfer reaction to acceptor),+ (a saccharide-transferred product was detected in an amount over one percent but less than 10% through transfer reaction to acceptor),+ (a saccharide-transferred product was detected in an amount over one percent but less than 10% through transfer reaction to acceptor)
"OC[C@H]1O[C@@H]2O[C@H]3[C@H](O)[C@@H](O)[C@@H](O[C@H]4[C@H](O)[C@@H](O)[C@@H](O[C@H]5[C@H](O)[C@@H](O)[C@@H](O[C@H]6[C@H](O)[C@@H](O)[C@@H](O[C@H]7[C@H](O)[C@@H](O)[C@@H](O[C@H]1[C@H](O)[C@H]2O)O[C@@H]7CO)O[C@@H]6CO)O[C@@H]5CO)O[C@@H]4CO)O[C@@H]3CO [α-Cyclodextrin, α-cyclodextrin]",−,−,−,−
